Assay results taken from patent US20120177693A1, “DEEP LUNG PULMONARY DELIVERY OF TREPROSTINIL” (Aradigm Corporation, priority 2008, published 2012).
“And” between values parts separate entries of the source, which are not always exact repeats. Identical values can stand only once.

Assay: Gamma scintigraphy of 99mTc-DTPA radiolabeled treprostinil sodium inhaled via AERx Essence System or Nebu-Tec Optineb nebulizer, two-way crossover, 14 healthy male subjects
Type: in vivo, human
Conditions: for Calculated Lung Dose: monosodium salt; for Dose (calculated dose to lung): Median
Description: This was an open label study conducted in a single-center, using a randomized, two-way crossover design. Sixteen healthy adult male subjects were to be enrolled to receive study treatments. Upon provision of written informed consent, each study candidate underwent a pre-study evaluation and screening to determine eligibility to participate.
On each of two dosing days, eligible subjects underwent dosing with ^99mTc-labeled treprostinil sodium using either the AERx Essence System or the Nebu-Tec Optineb nebulizer. Following their initial study dose, subjects underwent a washout period of approximately 48 hours before completing a second (crossover) study dose.
Immediately following each study dose, subjects underwent gamma scintigraphy and multiple samplings of venous blood to characterize treprostinil lung deposition and plasma pharmacokinetics.
Subjects also underwent a Krypton-81m (^81mKr) gas ventilation imaging procedure. This procedure could have been performed on any dosing day followed by a 30 minute washout before any of the aerosol dosing procedures, if there were logistical/scheduling problems, ventilation imaging could have been done after dosing. Alternatively the ^81mKr ventilation scan could have been performed on a separate visit. Additionally transmission images were also acquired this could have been performed on any dosing day prior to any of the aerosol dosing procedures or on a separate visit
A single “bulk” treprostinil sodium formulation (600 μg/mL) was used for both the Nebu-Tec Optineb nebulizer and the AERx Essence. The bulk drug solutions were diluted by the addition of ^99mTc-DTPA (2000 MBq/mL) at a ratio of 19:1, i.e. 0.05 mL of ^99mTc-DTPA was added to 0.950 mL of bulk drug solution. Each mL of the radiolabeled drug solutions therefore contained 100 MBq of ^99mTc-DTPA and 570 μg of treprostinil. The radiolabel ^99mTc as ^99mTc-DTPA was acquired from an approved supplier (i.e., the Medical Physics Department, University Hospital of Wales, Heath, Cardiff [Manufacturers License Number: MS/IMP18523]).
In this study, the radiolabel marker (^99mTc-DTPA) deposition profiles obtained following administration of a radiolabeled treprostinil sodium formulation will be evaluated using gamma to assess the performance for the two delivery systems. Gamma scintigraphy offers a precise and accurate method of evaluating the deposition of an inhaled radiolabeled aerosol in the oropharynx and lung.
To compare the emitted dose, delivered lung dose, and the central-to-peripheral (sC/P) lung deposition of radiolabeled treprostinil sodium delivered via the AERx Essence System versus the Nebu-Tec Optineb nebulizer using gamma scintigraphy.
In addition the following secondary efficacy variables were determined, the dose (μg) of treprostinil deposited in the lung, the percent dose (emitted and loaded) of radiolabeled treprostinil sodium in the oropharyngeal region from both devices, the percent loaded dose remaining in both devices and associated equipment e.g. mouthpiece.
Scintigraphic data were used to determine the fraction of the loaded dose delivered to the lung which was subsequently utilised to estimate the lung dose in terms of μg of Treprostinil. For AERx, the calculation of lung dose was derived by normalising the emitted dose to lung for the fraction (%) of the loaded dose retained post-administration i.e. within the device and dosage forms. The actual dose within the AERx strips (a single dose consisted of two strips) was calculated from the nominal treprostinil concentration adjusted for the actual concentration determined by HPLC assay of the stock radiolabeled drug solutions on each dosing day (see Table 14.2.1.5).
The Optineb device contained a drug reservoir (nebuliser cup) from which each dose (six separate puffs) was metered. To determine the dose available to the subject an in vitro test to collect a single emitted dose (ED) was performed for each device following subject dosing.

## CCCCC[C@H](O)CC[C@@H]1[C@H]2Cc3cccc(OCC(=O)[O-])c3C[C@H]2C[C@H]1O.[Na+] [treprostinil, (1R,2R,3aS,9aS)-[[2,3,3a,4,9,9a-Hexahydro-2-hydroxyl-1-[(3S)-3-hydroxyoctyl]-1H-benz[f]inden-5-yl]oxy]acetic acid monosodium salt]
AERx vs nebulizer
  Greater treprostinil lung dose for AERx than for the nebulizer: 20%
Via AERx, Max, listed as Treprostinil
  Calculated Lung Dose: 30.76 µg
Via AERx, Max
  Calculated Lung Dose: 30.756 µg
Via AERx, Mean, listed as Treprostinil
  Calculated Lung Dose: 26.07 µg
Via AERx, Mean
  Calculated Lung Dose: 26.07 µg and 26.072 µg
Via AERx
  Dose (calculated dose to lung): 27.383 µg
Via AERx, Min, listed as Treprostinil
  Calculated Lung Dose: 12.77 µg
Via AERx, Min
  Calculated Lung Dose: 12.770 µg
Via Optineb, Max, listed as Treprostinil
  Calculated Lung Dose: 30.69 µg
Via Optineb, Max
  Calculated Lung Dose: 30.691 µg
Via Optineb, Mean, listed as Treprostinil
  Calculated Lung Dose: 19.58 µg
Via Optineb, Mean
  Calculated Lung Dose: 19.58 µg and 19.579 µg
Via Optineb
  Dose (calculated dose to lung): 18.470 µg
Via Optineb, Min, listed as Treprostinil
  Calculated Lung Dose: 9.30 µg
Via Optineb, Min
  Calculated Lung Dose: 9.296 µg
